# Laboratory results reported in ChEMBL document CHEMBL1122594, “Parasite enzymes as potential targets for antiparasitic chemotherapy” (J Med Chem, 1984).
# pKi: −log10 of the molar value. Activity calls are given as the source filed them. The rule behind the calls is not given here.
# Columns and labels:
# [1] = Anticoccidial activity against toxoplasmosis in cattle; no activity; assay type: functional
# Gallus gallus = species on record: Gallus gallus; assay: Anticoccidial activity against toxoplasmosis in chicken; no activity; assay type: functional, organism-based
# [2] = (§1) Enzymatic activity was determined
# [3] = as §1; remark: listed apart in the source
SMILES,pKi [3],further results
CCCc1ncc(C[n+]2ccccc2C)c(N)n1,–,Activity [1]: inactive; Activity (Gallus gallus): inactive
Nc1ccc(C(=O)O)cc1,–,Km [2]: 1.5 µM
N=C(N)NS(=O)(=O)c1ccc(N)cc1 [SULFAGUANIDINE],4.16,–
Nc1ccc(S(N)(=O)=O)cc1 [SULFANILAMIDE],3.89,–
Nc1ccc(S(=O)(=O)Nc2nccs2)cc1 [SULFATHIAZOLE],4.85,–
